This is an account of results in patent US6608086B2, “Dihydropyridines and new uses thereof” (Synaptic Pharmaceutical Corporation, priority 1993, dated 2003).

Counter-ions that a name gives are not always drawn. Like-named read-outs stand apart in the source and are kept apart here.

The target in assay [1] is T1, α1A Human Adrenergic Receptor (Homo sapiens, UniProt P25100).
T1 construct: The entire coding region of α1A (1719 bp); expressed in transfected cells
T1 sequence (P25100 1-572): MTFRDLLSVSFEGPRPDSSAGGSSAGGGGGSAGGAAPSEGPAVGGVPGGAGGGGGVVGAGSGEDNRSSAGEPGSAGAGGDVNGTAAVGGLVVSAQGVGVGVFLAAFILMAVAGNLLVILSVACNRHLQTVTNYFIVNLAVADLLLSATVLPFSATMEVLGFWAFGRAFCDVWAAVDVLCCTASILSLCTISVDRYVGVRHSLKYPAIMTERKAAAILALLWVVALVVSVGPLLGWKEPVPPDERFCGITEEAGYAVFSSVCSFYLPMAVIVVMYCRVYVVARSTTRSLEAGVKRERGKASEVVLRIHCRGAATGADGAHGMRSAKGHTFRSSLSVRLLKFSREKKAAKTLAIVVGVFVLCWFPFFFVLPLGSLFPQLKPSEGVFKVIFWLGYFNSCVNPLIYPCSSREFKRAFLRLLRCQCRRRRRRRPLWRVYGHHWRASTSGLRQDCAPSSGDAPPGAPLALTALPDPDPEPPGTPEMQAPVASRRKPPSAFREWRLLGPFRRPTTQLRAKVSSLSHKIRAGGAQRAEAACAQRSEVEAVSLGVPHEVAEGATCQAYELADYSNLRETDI
Put plainly: Radioligand binding, [3H]prazosin, cloned human α1A adrenergic receptor. In a few lines:
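Filter-bound radioactivity measured [3H]prazosin (0.5 nM) binding to membranes of LM(tk−) cells expressing the human α1A receptor after 20 min at 37° C. Phentolamine at 10 μM set nonspecific binding.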

The target in a further assay is T2, α2C receptor (Homo sapiens, UniProt P18825).
T2 construct: host or cells: LM(tk-) cells, line L-α2C
T2 sequence (P18825 1-462): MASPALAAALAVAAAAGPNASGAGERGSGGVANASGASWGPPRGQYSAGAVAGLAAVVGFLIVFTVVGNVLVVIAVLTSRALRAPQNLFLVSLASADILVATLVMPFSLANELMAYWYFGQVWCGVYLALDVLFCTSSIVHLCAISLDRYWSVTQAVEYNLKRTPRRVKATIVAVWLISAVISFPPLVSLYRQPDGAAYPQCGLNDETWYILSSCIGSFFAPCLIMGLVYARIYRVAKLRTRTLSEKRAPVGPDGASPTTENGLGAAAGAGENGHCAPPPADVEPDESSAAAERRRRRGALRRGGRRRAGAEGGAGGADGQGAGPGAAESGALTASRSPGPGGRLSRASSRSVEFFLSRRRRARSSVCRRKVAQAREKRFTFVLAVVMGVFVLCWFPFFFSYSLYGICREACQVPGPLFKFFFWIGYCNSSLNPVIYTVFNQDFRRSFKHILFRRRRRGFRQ
Put plainly: Competition binding, [3H]rauwolscine, human α2C receptor. In a few lines: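 Lysates of LM(tk−) cells stably expressing human α2A, α2B or α2C receptors in 25 mM glycylglycine pH 7.6. Equilibrium competition against 0.5 nM [3H]rauwolscine, with 10 μM phentolamine defining nonspecific binding. Bound ligand separated by GF/B filtration.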

A further assay deals with T3, L-type calcium channel (Rattus norvegicus, UniProt P22002).
T3 construct: membrane fragments of rat cardiac muscle; from tissue; host or cells: rat cardiac muscle membranes
T3 sequence (P22002 whole entry, other chains not shown, the tested form may be a part): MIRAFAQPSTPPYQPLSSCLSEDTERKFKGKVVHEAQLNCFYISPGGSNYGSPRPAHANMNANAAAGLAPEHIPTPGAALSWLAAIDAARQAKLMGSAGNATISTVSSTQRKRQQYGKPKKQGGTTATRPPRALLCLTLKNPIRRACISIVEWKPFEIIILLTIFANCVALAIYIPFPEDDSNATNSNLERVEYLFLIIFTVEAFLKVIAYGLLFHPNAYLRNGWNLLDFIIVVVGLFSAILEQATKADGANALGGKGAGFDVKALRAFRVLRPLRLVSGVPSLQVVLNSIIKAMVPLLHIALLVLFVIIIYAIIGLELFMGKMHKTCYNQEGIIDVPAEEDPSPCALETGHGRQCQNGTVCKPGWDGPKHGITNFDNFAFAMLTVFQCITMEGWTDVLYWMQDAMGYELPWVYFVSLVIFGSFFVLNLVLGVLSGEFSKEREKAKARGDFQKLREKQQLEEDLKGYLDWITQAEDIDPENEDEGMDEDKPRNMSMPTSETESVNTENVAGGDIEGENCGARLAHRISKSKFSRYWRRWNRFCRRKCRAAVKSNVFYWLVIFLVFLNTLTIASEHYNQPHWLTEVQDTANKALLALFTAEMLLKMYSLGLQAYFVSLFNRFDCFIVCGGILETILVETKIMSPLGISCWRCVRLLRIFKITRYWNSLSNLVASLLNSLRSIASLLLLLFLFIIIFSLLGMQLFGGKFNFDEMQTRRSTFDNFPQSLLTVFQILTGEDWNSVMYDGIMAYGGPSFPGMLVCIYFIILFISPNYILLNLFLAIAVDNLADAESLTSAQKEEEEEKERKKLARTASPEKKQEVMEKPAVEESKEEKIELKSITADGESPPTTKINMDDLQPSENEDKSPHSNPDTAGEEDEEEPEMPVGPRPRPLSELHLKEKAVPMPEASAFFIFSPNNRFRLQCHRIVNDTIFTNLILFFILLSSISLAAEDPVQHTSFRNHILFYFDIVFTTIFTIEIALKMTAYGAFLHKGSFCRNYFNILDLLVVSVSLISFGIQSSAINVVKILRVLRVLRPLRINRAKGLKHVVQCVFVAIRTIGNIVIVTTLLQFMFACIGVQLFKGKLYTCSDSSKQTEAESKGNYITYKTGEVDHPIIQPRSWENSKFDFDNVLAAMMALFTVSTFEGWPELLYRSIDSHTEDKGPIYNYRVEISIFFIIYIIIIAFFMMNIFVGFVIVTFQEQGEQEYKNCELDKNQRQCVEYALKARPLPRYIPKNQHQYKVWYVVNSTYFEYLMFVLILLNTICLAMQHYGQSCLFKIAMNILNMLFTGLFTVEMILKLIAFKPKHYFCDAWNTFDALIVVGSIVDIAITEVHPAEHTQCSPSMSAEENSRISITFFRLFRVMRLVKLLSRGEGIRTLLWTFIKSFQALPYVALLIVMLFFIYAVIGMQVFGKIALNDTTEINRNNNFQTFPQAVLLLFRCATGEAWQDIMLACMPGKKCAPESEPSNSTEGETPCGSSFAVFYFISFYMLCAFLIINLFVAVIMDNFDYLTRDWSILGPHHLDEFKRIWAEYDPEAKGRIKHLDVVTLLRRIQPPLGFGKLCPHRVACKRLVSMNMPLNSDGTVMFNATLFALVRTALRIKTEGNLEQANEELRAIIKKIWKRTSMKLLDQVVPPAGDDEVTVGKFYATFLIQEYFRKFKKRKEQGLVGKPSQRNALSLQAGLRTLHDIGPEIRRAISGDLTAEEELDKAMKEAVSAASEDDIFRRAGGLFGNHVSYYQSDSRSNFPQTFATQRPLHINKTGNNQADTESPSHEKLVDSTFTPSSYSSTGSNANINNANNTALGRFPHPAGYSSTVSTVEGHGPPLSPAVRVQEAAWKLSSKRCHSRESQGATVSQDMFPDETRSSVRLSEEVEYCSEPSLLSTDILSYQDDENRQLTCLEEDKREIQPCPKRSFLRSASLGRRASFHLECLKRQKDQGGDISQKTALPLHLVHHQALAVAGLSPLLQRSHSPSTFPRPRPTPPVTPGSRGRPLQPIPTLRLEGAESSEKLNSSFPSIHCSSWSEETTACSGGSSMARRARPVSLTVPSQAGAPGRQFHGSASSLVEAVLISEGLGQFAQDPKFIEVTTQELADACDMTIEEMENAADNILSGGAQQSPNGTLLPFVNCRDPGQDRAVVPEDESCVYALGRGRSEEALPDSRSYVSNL
T3 sequence (P54290 25-944 partner limits assumed, other chains not shown): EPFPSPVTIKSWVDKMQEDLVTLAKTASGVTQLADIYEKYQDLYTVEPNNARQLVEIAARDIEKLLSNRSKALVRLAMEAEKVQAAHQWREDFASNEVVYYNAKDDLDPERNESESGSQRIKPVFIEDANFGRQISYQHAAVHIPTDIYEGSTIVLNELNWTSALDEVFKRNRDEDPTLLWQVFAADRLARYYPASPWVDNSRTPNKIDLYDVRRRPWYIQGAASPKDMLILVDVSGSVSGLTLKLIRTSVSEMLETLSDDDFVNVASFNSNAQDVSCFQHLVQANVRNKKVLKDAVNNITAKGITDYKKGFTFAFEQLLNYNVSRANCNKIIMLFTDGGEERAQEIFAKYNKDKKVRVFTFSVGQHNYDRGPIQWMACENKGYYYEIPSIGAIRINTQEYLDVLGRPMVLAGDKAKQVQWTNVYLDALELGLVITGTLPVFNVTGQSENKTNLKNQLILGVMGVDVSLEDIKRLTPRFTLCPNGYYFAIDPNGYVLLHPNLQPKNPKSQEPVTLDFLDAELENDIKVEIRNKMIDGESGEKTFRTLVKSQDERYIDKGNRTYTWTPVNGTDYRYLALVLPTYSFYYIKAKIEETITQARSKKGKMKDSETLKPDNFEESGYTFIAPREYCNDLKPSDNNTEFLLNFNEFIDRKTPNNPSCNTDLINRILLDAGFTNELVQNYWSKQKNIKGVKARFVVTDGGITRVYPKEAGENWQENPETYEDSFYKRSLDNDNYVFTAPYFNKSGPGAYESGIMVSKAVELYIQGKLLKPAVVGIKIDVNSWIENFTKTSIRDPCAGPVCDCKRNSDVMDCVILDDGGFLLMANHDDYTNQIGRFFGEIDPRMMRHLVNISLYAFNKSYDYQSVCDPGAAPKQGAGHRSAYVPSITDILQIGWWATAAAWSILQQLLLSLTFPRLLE
T3 sequence (P54290 945-1091 partner limits assumed, other chains not shown): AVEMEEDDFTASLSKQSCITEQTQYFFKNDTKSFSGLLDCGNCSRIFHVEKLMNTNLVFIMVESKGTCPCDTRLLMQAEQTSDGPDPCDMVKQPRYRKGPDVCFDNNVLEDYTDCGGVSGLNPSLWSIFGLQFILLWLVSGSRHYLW
The experiment in a line: Competition binding of [3H]nitrendipine to membrane fragments of rat cardiac muscle.

The mark [2] stands for this setting: pKi alpha-1 1a, [3H]prazosin, cloned human α1A receptor, LM(tk−) cell membranes.
Where [3] appears, read: pKi alpha-2 2c, [3H]rauwolscine, human α2C receptor, LM(tk−) cells.
Setting [4] is: [3H]nitrendipine, rat cardiac muscle membranes, SEM and n in lines below, read-out: pKi Ca (converted).
Where [5] appears, read: pKi alpha-1 1a, [3H]prazosin, cloned human receptor in LM(tk-) cell membranes, SEM and n in lines below.
Where [6] appears, read: [3H]rauwolscine, LM(tk-) cell line L-α2C, SEM and n in lines below, read-out: pKi alpha-2 2c (converted).
Setting [7] is: [3H]nitrendipine, rat cardiac muscle membrane fragments, L-type calcium channel, read-out: pKi Ca (converted).
Where [8] appears, read: [3H]rauwolscine, human α2C receptor, LM(tk−) cells, read-out: pKi alpha-2 2c (converted).

With `CCC1=C(C(=O)NCCCN2CCC(c3ccccc3)(c3ccccc3)CC2)C(c2ccc([N+](=O)[O-])cc2)C(C(N)=O)=C(COCCN=[N+]=[N-])N1` (stereo not shown) [Example 149, 2-((2-Azidoethyl)oxy)methyl-3-carboxamido-6-ethyl-1,4-dihydro-4-(4-nitro) phenyl-5-(N-(3-(4,4-diphenylpiperidin-1-yl)propyl))carboxamidopyridine], the results for the Ki (in assay [1] (setting [2]); at α2C receptor (setting [3])) were 324 nM and 257 nM, respectively.
In the case of `COC(=O)C1=C(C)NC(C)=C(C(=O)NCCN2CCC(c3ccccc3)(c3ccccc3)CC2)C1c1ccc([N+](=O)[O-])cc1` (stereo not shown) [Example 52, 1,4-Dihydro-3-methoxycarbonyl-2,6-dimethyl-4-(4-nitrophenyl)-5-{N-[2-(4,4-diphenylpiperidin-1-yl)ethyl]}carboxamidopyridine hydrochloride hemihydrate], the Ki was 5130 nM on L-type calcium channel (pKi Ca), 1150 nM in assay [1] (pKi alpha-1 1a) and 263 nM on α2C receptor (pKi alpha-2 2c).
In the case of `COC(=O)C1=C(C)NC(C)=C(C(=O)NCCCN2CCC(c3ccccc3)(c3ccccc3)CC2)C1c1ccncc1` (stereo not shown) [Example 5, 1,4-Dihydro-5-methoxycarbonyl-2,6-dimethyl-3-(N-(3-(4,4-diphenylpiperidin-1-yl)propyl)carboxamido)-4-(4-pyridyl)pyridine], the Ki at L-type calcium channel (pKi Ca) was 4570 nM; in assay [1] (pKi alpha-1 1a) it was 1820 nM; on α2C receptor (pKi alpha-2 2c) it was 24500 nM.
Take `CC1=C(C(=O)NCCCN2CCC(c3ccccc3)(c3ccccc3)CC2)C(c2ccc([N+](=O)[O-])cc2)c2c([nH]c(=O)[nH]c2=O)N1` (stereo not shown) [Example 64]: the Ki at L-type calcium channel (setting [4]) was 97700 nM; in assay [1] (setting [5]), 490 nM; at α2C receptor (setting [6]) it was 479 nM.
Turning to `CCC1=C(C(=O)NCCCN2CCC(c3ccccc3)(c3ccccc3)CC2)C(c2cccc(OC)c2)C(C(=O)NCCCN2CCC(c3ccccc3)(c3ccccc3)CC2)=C(CC)N1` [Example 112, 2,6-Diethyl-1,4-dihydro-4-(3-methoxyphenyl)-3,5-bis(N-(3-(4,4-diphenylpiperidin-1-yl)propyl)carboxamido)-pyridine], the figures for the Ki (at L-type calcium channel (setting [7]); in assay [1] (setting [2]); at α2C receptor (setting [3])) were 57.5 nM, 30.2 nM and 269 nM, respectively.
As to `CCC1=C(C(N)=O)C(c2ccc([N+](=O)[O-])cc2)C(C(=O)NCCCN2CCC(c3ccccc3)(c3ccccc3)CC2)=C(CC)N1` (stereo not shown) [Example 42, 5-carboxamido-2,6-diethyl-1,4-dihydro-4-(4-nitrophenyl)-3-{N-[3-(4,4-diphenylpiperidin-1-yl)propyl]}carboxamidopyridine], the Ki was 447 nM in assay [1] (setting [5]); 170 nM on α2C receptor (pKi alpha-2 2c, [3H]rauwolscine, LM(tk-) cell line L-α2C, SEM and n in lines below).
For the compound `CNC(=O)C1=C(C)NC(C)=C(C(=O)NCCCN2CCC(O)(c3ccccc3)CC2)C1c1ccc([N+](=O)[O-])cc1` (stereo not shown) [Example 162, 1,4-Dihydro-3-{N-[3-(4-hydroxy-4-phenylpiperidin-1-yl)propyl]}carboxamido-2,6-dimethyl-5-(N-methyl)carboxamido-4-(4-nitrophenyl)pyridine], the results for the Ki (on L-type calcium channel (setting [7]); in assay [1] (setting [2]); at α2C receptor (setting [8])) were 50100 nM, 1070 nM and 550 nM, respectively.
Consider `COC(=O)C1=C(C)NC(C)=C(C(=O)N(C)CCCN2CCC(c3ccccc3)(c3ccccc3)CC2)C1c1ccc([N+](=O)[O-])cc1` (stereo not shown) [Example 46, hydrochloride hemihydrate], for which the Ki on L-type calcium channel (pKi Ca) is 7410 nM; in assay [1] (pKi alpha-1 1a), 501 nM; on α2C receptor (pKi alpha-2 2c), 245 nM.
For the compound `COC(=O)C1=C(C)NC(C)=C(C(=O)NCCCN2CCC(c3ccccc3)(c3ccccc3)CC2)C1c1cc[n+]([O-])cc1` (stereo not shown) [Example 9, 1,4-Dihydro-3-methoxycarbonyl-2,6-Dimethyl-4-(1-oxido-4-pyridyl)-5-(N-(3-(4,4-diphenylpiperidin-1-yl)propyl)carboxamido)pyridine], the results for the Ki (on L-type calcium channel (setting [4]); in assay [1] (setting [5]); at α2C receptor (setting [6])) were 19100 nM, 1700 nM and 1320 nM, respectively.
`CCC1=C(C(=O)OCCC#N)C(c2ccc([N+](=O)[O-])cc2)C(C(=O)NCCCN2CCC(c3ccccc3)(c3ccccc3)CC2)=C(COCCN=[N+]=[N-])N1` (stereo not shown) [Example 141]: the Ki in assay [1] (setting [2]) is 50.1 nM; on α2C receptor (setting [3]) it was 355 nM.
In the case of `CCC1=C(C(N)=O)C(c2ccc([N+](=O)[O-])cc2)C(C(=O)NCCCN2CCC(c3ccccc3)(c3ccccc3)CC2)=C(C)N1` (stereo not shown) [Example 41, 3-Carboxamido-2-ethyl-1,4-dihydro-6-methyl-4-(4-nitrophenyl)-3-{N-[3-(4,4-diphenylpiperidin-1-yl)propyl]}carboxamidopyridine], the results for the Ki (in assay [1] (setting [5]); at α2C receptor (setting [6])) were 501 nM and 437 nM, respectively.
For `CCNC(=O)C1=C(COCCN=[N+]=[N-])NC(CC)=C(C(=O)NCCCN2CCC(c3ccccc3)(c3ccccc3)CC2)C1c1ccc([N+](=O)[O-])cc1` (stereo not shown) [Example 147, 2-((2-Azidoethyl)oxy)methyl-6-ethyl-3-(N-ethyl)carboxamido-1,4-dihydro-4-(4-nitro)phenyl-5-(N-(3-(4,4-diphenylpiperidin-1-yl-)propyl))carboxamidopyridine], the Ki is 372 nM in assay [1] (setting [2]) and 251 nM on α2C receptor (setting [3]).
Consider `CCC1=C(C(N)=O)C(c2ccc(S(C)(=O)=O)cc2)C(C(=O)NCCCN2CCC(c3ccccc3)(c3ccccc3)CC2)=C(CC)N1` (stereo not shown) [Example 116, 5-Carboxamido-2,6-diethyl-1,4-dihydro-4-(4-methanesulfonylphenyl)-3-(N-(3-(4,4-diphenylpiperidin-1-yl)propyl)carboxamido)-pyridine], for which the Ki in assay [1] (setting [2]) is 186 nM; on α2C receptor (setting [3]) it was 741 nM.
As for `COC(=O)C1=C(C)NC(C)=C(C(=O)NCCCN2CCC(c3ccccc3)(c3ccccc3)CC2)C1c1cccnc1` (stereo not shown) [Example 14, 1,4-Dihydro-3-methoxycarbonyl-2.6-dimethyl-5-(N-(3-(4,4-diphenylpiperidin-1-yl)propyl)carboxamido)-4-(3-pyridyl)pyridine], the results for the Ki (in assay [1] (setting [5]); on α2C receptor (setting [6])) were 4070 nM and 1100 nM, respectively.
`CCC1=C(C(=O)NCCCN2CCC(c3ccccc3)(c3ccccc3)CC2)C(c2ccc([N+](=O)[O-])cc2)C(C(=O)NC)=C(COCCN=[N+]=[N-])N1` (stereo not shown) [Example 151, 2-((2-Azidoethyl)oxy)methyl-6-ethyl-1,4-dihydro-3-(N-methyl)carboxamido-4-(4-nitro)phenyl-5-(N-(3-(4,4-diphenylpiperidin-1-yl)propyl))carboxamidopyridine]: the Ki is 631 nM in assay [1] (setting [2]) and 209 nM on α2C receptor (setting [3]).
With `CCC1=C(C(=O)OCCC#N)C(c2ccc([N+](=O)[O-])cc2)C(C(=O)NCCCN2CCC(c3ccccc3)(c3ccccc3)CC2)=C(COC)N1` (stereo not shown) [Example 135], the Ki was 501 nM in assay [1] ([3H]prazosin, cloned human α1A receptor, LM(tk−) cell membranes, read-out: pKi alpha-1 1a (converted)) and 339 nM at α2C receptor (setting [8]).
For `CCC1=C(C(=O)NC)C(c2ccc([N+](=O)[O-])cc2)C(C(=O)NCCCN2CCC(c3ccccc3)(c3ccccc3)CC2)=C(CC)N1` (stereo not shown) [Example 128, 2,6-Diethyl-1,4-dihydro-5-(N-methyl)carboxamido-4-(4-nitrophenyl)-3-{N-[3-(4,4-diphenylpiperidin-1-yl)propyl]}carboxamidopyridine], the figures for the Ki (in assay [1] (setting [2]); on α2C receptor (setting [8])) were 977 nM and 219 nM, respectively.
For `CCC1=C(C(=O)NCCCN2CCC(c3ccccc3)(c3ccccc3)CC2)C(c2ccc([N+](=O)[O-])cc2)C(C(=O)OC(C)(C)C)=C(COCCN=[N+]=[N-])N1` (stereo not shown) [Example 139], the figures for the Ki (in assay [1] (setting [2]); at α2C receptor (setting [3])) were 479 nM and 309 nM, respectively.
